Source: patent US6391914B1, “Optically active aminopentane derivatives” (Fujimoto Brothers Co., Ltd., priority 1998, dated 2002)
Where a name gives a salt, the structure may show the parent alone.

What was measured:
[1] = system: primary cultured hepatocyte; assay: Toxicity screening using primary cultured hepatocyte (LDH release); format: cell-based, rat; conditions: 24 hr
Experimental: The hepatocytes was prepared from rat liver using collagenase perfusion method and the cell suspension containing 5×10^5 cells/mL were prepared. After cultivation for 24 hr, the medium was changed to the William's Medium E (GIBCO ERL) containing 10 or 100 μmol/L of the compounds of the invention. After cultivation for 24 hr, the activity of lactatedehydrogenase (LDH) released into the medium was measured.

[2] = biological target: T1, monoamine oxidase type-B (MAO-B) (Mus musculus, UniProt Q8BW75); assay: Mice brain MAO-B inhibition (14C-phenylethylamine); format: biochemical; conditions: concentration of 10^−5 mol/L
T1 construct: the pellet was resuspended in the above buffer to be enzyme solution; from tissue; host or cells: whole brain of male C57Bl/6 mice, 40,000 g pellet
T1 sequence (Q8BW75 1-520): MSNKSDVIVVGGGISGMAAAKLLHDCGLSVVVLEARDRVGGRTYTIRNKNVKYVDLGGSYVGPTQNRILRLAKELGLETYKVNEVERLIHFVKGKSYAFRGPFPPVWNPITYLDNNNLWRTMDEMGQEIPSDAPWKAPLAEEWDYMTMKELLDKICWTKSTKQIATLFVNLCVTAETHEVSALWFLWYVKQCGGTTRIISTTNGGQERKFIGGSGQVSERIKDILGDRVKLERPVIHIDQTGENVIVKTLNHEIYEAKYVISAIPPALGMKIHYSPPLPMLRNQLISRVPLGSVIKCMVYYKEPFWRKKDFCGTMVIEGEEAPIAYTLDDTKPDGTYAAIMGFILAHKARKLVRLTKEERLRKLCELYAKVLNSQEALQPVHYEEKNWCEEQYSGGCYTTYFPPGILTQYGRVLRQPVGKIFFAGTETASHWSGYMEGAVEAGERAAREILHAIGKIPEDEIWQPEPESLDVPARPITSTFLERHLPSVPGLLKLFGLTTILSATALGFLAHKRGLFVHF
Experimental: After male C57B1/6 mice were decapitated, the whole brain was isolated immediately. The brain samples were weighed, and homogenized in 0.2 mol/L potassium phosphate buffer (pH 7.5) containing 1.0% EDTA-2Na by homogenizer. After the homogenate was centrifuged at 2,000 RPM for 20 min, the supernatant was centrifuged at 18,000 RPM (40,000 g) for 30 min. The pellet was resuspended, and further centrifuged in the same manner. Thereafter, the pellet was resuspended in the above buffer to be enzyme solution. All procedure was carried out at 4° C.
^14C-Labeled substrate (^14C-phenylethylamine) and enzyme solution from mice are mixed in test tube, incubated for 30 min at 37° C., and stopped the reaction with 20 μL of 6 mol/L Hcl. The reaction product was extracted with toluene-ethylacetate (1:1), and the radioactivity was measured using scintillation counter. Then, MAO-B inhibitory activity was calculated.

[3] = system: brain tissues (striatum, substantia nigra, tuberculum olfactorium, locus coeruleus and raphe); assay: Biogenic amines released from brain tissue after s.c. administration; format: in vivo, Wistar rats
Experimental: The method described in Life Sci., 56, 611-620 (1995) was used. After Wistar rats were decapitated, appropriate brain tissues (striatum, substantia nigra, tuberculum olfactorium, locus coeruleus and raphe) were isolated quickly and soaked in oxygenated (95% O2 and 5% CO2) Krebs' solution at 37° C. The composition of Krebs' solution (mmol/L) was as follows: NaCl 111, KCl 4.7, CaCl2 2.5, MgSO4 1.64, NaHCO3 25, KH2PO4 1.2, glucose 12 mg/L ascorbic acid and 20 mg/l EDTA-2Na. The preparations, submerged in one organ bath, were as follows: 1) four pieces of striatum (each halved), 2) four pieces of substantia nigra, 3) four pieces of tuberculum olfactorium, 4) eight pieces of locus coeruleus, 5) eight pieces of raphe. After incubating the tissue for 20 min, the Krebs' solution was exchanged. After the tissue was submerged for 20 min in Krebs' solution containing the compounds of the invention, the biogenic amine released during this period was quantified. The compounds of the invention, the (+)-isomer, the racemic compound and control compound, were respectively dissolved in saline, and subcutaneously administered 30 min before dissection of the brain samples. In the case of noradrenaline and dopamine, samples were purified on microcolumns (BDH Chemicals Ltd.) filled with 60 mg of alumina according to the method described in J. Pharmacol. Exp. Ther., 138, 360-372 (1962). In the case of serotonin, samples were purified on 15 mg Sephadex G-10 microcolumns (Pharmacia). Dopamine, noradrenaline and serotonin were quantified by high performance liquid chromatography (Waters 746 data module) with electrochemical detection (Waters 460 electrochemical detector). Waters Resolve 5μ Spherical C18 3.9×150 mm column was used as separating column and triethylamine-phosphate buffer (pH 5.2) containing 200/mg/L octaine sulfonate sodium and 18 mg/L EDTA-2Na with 6% acetonitrile, was used as mobile phase. The amount of appropriate amine released for 20 min was noted as nmol/g tissue. The differences among means were tested using Student's t-test. Significant level was set at P<0.05.

[4] = system: tetrabenazine-treated rats; assay: Conditioned avoidance task in the shuttle box, tetrabenazine-treated rats; format: in vivo, rat; conditions: for Minimum dose to cause conditioned avoidance reflexes (CARs) in tetrabenazine-treated rats in shuttle box: with tetrabenazine 1 mg/kg s.c.
Experimental: The method described in Life Sci., 58, 817-827 (1996) was used. The effects on conditioned avoidance reflex (CARs) were analyzed in the shuttle box using male and female rats (weighing 200-220 g) whose learning abilities were reduced by the administration of tetrabenazine. The instrument was constructed, according to the device described in Psychopharmacologia 10, 1-5 (1966). The male and female rats (weighing 200-220 g) were trained to cross the barrier under a conditioned stimulus. (CS, light flash and buzzer sounds). […] In addition, the unconcerned performance to this condition was noted as an intersignal reaction (IR). The rats were trained with 100 trials a day for 5 days. Each trial was carried out with 15-sec intertrial interval. Tetrabenazine saline solution was subcutaneously administered at a dose of 1 mg/kg 1 hr before the test. Then the solution of the compounds of the invention was administered at the doses of 1, 2, 2.5 and 5 mg/kg, s.c., simultaneously with tetrabenazine. The numbers of CARs, EFs and IRs were automatically counted and analyzed using one-way analysis of variance (ANOVA).
Therefore, the compound has no stimulant-like excitement.

Compound	Percent control of LDH release from primary cultured hepatocyte ([1]; 10 μmol/L) [Percent control]	Percent control of LDH release from primary cultured hepatocyte ([1]; 100 μmol/L) [Percent control]	Minimum dose to cause conditioned avoidance reflexes (CARs) in tetrabenazine-treated rats in shuttle box ([4]; s.c.)	Mice brain MAO-B inhibitory activity [2] [%]	Amount of dopamine released, Striatum ([3]; dose 0.0005 mg/kg s.c.) [nmol/g · tissue. 20 min.]	Amount of dopamine released, Substantia Nigraia ([3]; dose 0.0005 mg/kg s.c.) [nmol/g · tissue. 20 min.]	Amount of dopamine released, Tuberculum Olfactorium ([3]; dose 0.0005 mg/kg s.c.) [nmol/g · tissue. 20 min.]	Amount of noradrenaline released, Locus Coeruleus ([3]; dose 0.0005 mg/kg s.c.) [nmol/g · tissue. 20 min.]	Amount of serotonin released, Raphe ([3]; dose 0.0005 mg/kg s.c.) [nmol/g · tissue. 20 min.]	Amount of dopamine released, Striatum ([3]; dose 0.0025 mg/kg s.c.) [nmol/g · tissue. 20 min.]	Amount of dopamine released, Substantia Nigraia ([3]; dose 0.0025 mg/kg s.c.) [nmol/g · tissue. 20 min.]	Amount of dopamine released, Tuberculum Olfactorium ([3]; dose 0.0025 mg/kg s.c.) [nmol/g · tissue. 20 min.]	Amount of noradrenaline released, Locus Coeruleus ([3]; dose 0.0025 mg/kg s.c.) [nmol/g · tissue. 20 min.]	Amount of serotonin released, Raphe ([3]; dose 0.0025 mg/kg s.c.) [nmol/g · tissue. 20 min.]	Amount of dopamine released, Striatum ([3]; dose 0.0500 mg/kg s.c.) [nmol/g · tissue. 20 min.]	Amount of dopamine released, Substantia Nigraia ([3]; dose 0.0500 mg/kg s.c.) [nmol/g · tissue. 20 min.]	Amount of dopamine released, Tuberculum Olfactorium ([3]; dose 0.0500 mg/kg s.c.) [nmol/g · tissue. 20 min.]	Amount of noradrenaline released, Locus Coeruleus ([3]; dose 0.0500 mg/kg s.c.) [nmol/g · tissue. 20 min.]	Amount of serotonin released, Raphe ([3]; dose 0.0500 mg/kg s.c.) [nmol/g · tissue. 20 min.]	other results
CCCNC(CCC)Cc1cc2ccccc2o1.Cl (racemic) [Racemic compound, (±)-1-(benzofuran-2-yl)-2-propylaminopentane hydrochloride]	90.28 ± 2.85	112.10 ± 36.98	1 mg mg/kg	–	–	–	–	–	–	–	–	–	–	–	–	–	–	–	–	inhibition at 10 µM ([2]; read-out: Mice brain MAO-B inhibitory activity): 22.9%; Amount of dopamine released, Striatum ([3]; dose 0.0100 mg/kg s.c.): 5.3 ± 0.14 nmol/g · tissue. 20 min.; Amount of dopamine released, Substantia Nigraia ([3]; dose 0.0100 mg/kg s.c.): 6.6 ± 0.04 nmol/g · tissue. 20 min.; Amount of dopamine released, Tuberculum Olfactorium ([3]; dose 0.0100 mg/kg s.c.): 6.5 ± 0.20 nmol/g · tissue. 20 min.; Amount of noradrenaline released, Locus Coeruleus ([3]; dose 0.0100 mg/kg s.c.): 4.3 ± 0.20 nmol/g · tissue. 20 min.; Amount of serotonin released, Raphe ([3]; dose 0.0100 mg/kg s.c.): 0.457 ± 0.04 nmol/g · tissue. 20 min.
CCCNC(CCC)Cc1cc2ccccc2o1.Cl (single isomer, unassigned; (+)) [(+)-Isomer, (+)-1-(benzofuran-2-yl)-2-propylaminopentane hydrochloride]	124.41 ± 12.54	116.72 ± 6.91	2.5 mg mg/kg	1.7	4.4 ± 0.13	13.8 ± 0.25	6.7 ± 0.06	10.3 ± 0.35	1.785 ± 0.01	4.4 ± 0.10	8.4 ± 0.14	4.8 ± 0.25	7.4 ± 0.15	1.138 ± 0.05	4.4 ± 0.17	7.1 ± 0.24	4.8 ± 0.18	4.4 ± 0.10	0.642 ± 0.02	Amount of dopamine released, Striatum ([3]; dose 0.1000 mg/kg s.c.): 5.8 ± 0.21 nmol/g · tissue. 20 min.; Amount of dopamine released, Substantia Nigraia ([3]; dose 0.1000 mg/kg s.c.): 15.9 ± 0.25 nmol/g · tissue. 20 min.; Amount of dopamine released, Tuberculum Olfactorium ([3]; dose 0.1000 mg/kg s.c.): 7.3 ± 0.20 nmol/g · tissue. 20 min.; Amount of noradrenaline released, Locus Coeruleus ([3]; dose 0.1000 mg/kg s.c.): 5.6 ± 0.25 nmol/g · tissue. 20 min.; Amount of serotonin released, Raphe ([3]; dose 0.1000 mg/kg s.c.): 0.381 ± 0.01 nmol/g · tissue. 20 min.
CCCNC(CCC)Cc1cc2ccccc2o1 (single isomer, unassigned; (-)) [The compound of the invention, (−)-1-(benzofuran-2-yl)-2-propylaminopentane hydrochloride]	–	–	5 × 10^−2 mg mg/kg	4.7	4.8 ± 0.16	13.8 ± 0.23	6.7 ± 0.08	15.4 ± 0.55	0.914 ± 0.03	5.7 ± 0.19	13.1 ± 0.21	6.9 ± 0.31	3.9 ± 0.05	0.421 ± 0.03	6.5 ± 0.09	10.9 ± 0.11	7.7 ± 0.19	4.3 ± 0.25	0.457 ± 0.01	Percent control of LDH release from primary cultured hepatocyte ([1]; 10 μmol/L, hydrochloride): 104.94 ± 4.96 Percent control; Percent control of LDH release from primary cultured hepatocyte ([1]; 10 μmol/L, listed as the compound of the invention, hydrochloride): not increase; Percent control of LDH release from primary cultured hepatocyte ([1]; 100 μmol/L, hydrochloride): 126.42 ± 8.04 Percent control; Percent control of LDH release from primary cultured hepatocyte ([1]; 100 μmol/L, listed as the compound of the invention, hydrochloride): slightly increased LDH release; Amount of dopamine released, Striatum ([3]; dose 0.0001 mg/kg s.c.): 4.7 ± 0.14 nmol/g · tissue. 20 min.; Amount of dopamine released, Substantia Nigraia ([3]; dose 0.0001 mg/kg s.c.): 14.8 ± 0.36 nmol/g · tissue. 20 min.; Amount of dopamine released, Tuberculum Olfactorium ([3]; dose 0.0001 mg/kg s.c.): 7.2 ± 0.23 nmol/g · tissue. 20 min.; Amount of noradrenaline released, Locus Coeruleus ([3]; dose 0.0001 mg/kg s.c.): 6.6 ± 0.10 nmol/g · tissue. 20 min.; Amount of serotonin released, Raphe ([3]; dose 0.0001 mg/kg s.c.): 1.040 ± 0.03 nmol/g · tissue. 20 min.; Reduced learning function of rats administered with tetrabenazine (FIG. 2) ([4]; shuttle box, s.c.): significantly improved; Intersignal reactions (IRs) ([4]; shuttle box, tetrabenazine-treated rats): did not significantly change IRs
